Measurements from patent publication US8710043B2, “TRPM8 antagonists and their use in treatments” (Amgen Inc., priority 2011, dated 2014).
pIC50: −log10 of the molar value.

target: T1, human TRPM8 (Homo sapiens, UniProt Q7Z2W7); test: Luminescence readout assay for measuring intracellular calcium, icilin activation; format: cell-based; settings: CHO cells expressing human TRPM8, aequorin luminescence, 1 μM icilin activation; read-out: hTRPM8 IC50
T1 construct: expressed in transfected cells; host or cells: Chinese hamster ovary (CHO) cells, T-REx tetracycline-inducible system, co-transfected with aequorin
T1 sequence (Q7Z2W7 whole entry): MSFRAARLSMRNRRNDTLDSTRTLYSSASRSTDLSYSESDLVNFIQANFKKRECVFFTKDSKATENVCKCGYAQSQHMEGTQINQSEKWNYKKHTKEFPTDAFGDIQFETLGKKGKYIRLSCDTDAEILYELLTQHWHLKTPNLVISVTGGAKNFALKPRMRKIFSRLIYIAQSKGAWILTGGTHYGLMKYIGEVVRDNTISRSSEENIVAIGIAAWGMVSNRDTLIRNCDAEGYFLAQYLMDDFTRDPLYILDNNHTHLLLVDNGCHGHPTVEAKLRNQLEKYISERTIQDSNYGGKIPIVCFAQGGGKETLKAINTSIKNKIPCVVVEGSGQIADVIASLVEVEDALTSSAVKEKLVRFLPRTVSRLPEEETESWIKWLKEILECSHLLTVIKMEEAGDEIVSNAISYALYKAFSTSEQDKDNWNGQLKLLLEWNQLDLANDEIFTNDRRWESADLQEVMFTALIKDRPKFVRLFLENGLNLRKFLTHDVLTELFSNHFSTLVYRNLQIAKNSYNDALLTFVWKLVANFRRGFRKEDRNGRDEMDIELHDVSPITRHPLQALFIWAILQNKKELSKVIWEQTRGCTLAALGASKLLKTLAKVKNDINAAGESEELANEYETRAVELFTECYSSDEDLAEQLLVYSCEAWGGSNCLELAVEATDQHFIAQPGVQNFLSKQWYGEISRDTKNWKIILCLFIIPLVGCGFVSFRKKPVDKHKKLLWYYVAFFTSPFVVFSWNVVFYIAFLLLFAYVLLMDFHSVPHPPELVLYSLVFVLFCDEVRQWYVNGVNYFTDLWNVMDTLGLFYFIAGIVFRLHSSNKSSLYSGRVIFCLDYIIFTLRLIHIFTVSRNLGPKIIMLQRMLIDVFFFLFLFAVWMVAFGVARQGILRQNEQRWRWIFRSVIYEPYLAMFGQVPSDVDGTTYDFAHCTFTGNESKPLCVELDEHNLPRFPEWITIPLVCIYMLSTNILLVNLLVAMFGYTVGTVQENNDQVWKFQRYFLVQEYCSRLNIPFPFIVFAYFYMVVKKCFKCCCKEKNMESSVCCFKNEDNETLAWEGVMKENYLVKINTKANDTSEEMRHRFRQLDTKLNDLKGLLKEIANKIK
Summary of the method: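 The read-out was luminescence reporting intracellular calcium, recorded by a CCD-based luminometer. Compounds were preincubated for 2.5 min before agonist challenge with 1 μM icilin. Human TRPM8 was expressed in a stable T-REx CHO line, induced with 0.5 μg/mL tetracycline the day before.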

Row | SMILES | pIC50
1 | Cc1cc(C)cc([C@H](NC(=O)c2ccc(=O)[nH]c2)c2ncccc2F)c1 [Example 324, (S)-N-((3,5-dimethylphenyl)(3-fluoropyridin-2-yl)methyl)-6-oxo-1,6-dihydropyridine-3-carboxamide] | 5.98
2 | Cc1cc(F)cc([C@H](NC(=O)c2ccc(=O)[nH]c2)c2ncccc2F)c1 [Example 325, (S)-N-((3-fluoro-5-methylphenyl)(3-fluoropyridin-2-yl)methyl)-6-oxo-1,6-dihydropyridine-3-carboxamide] | 6.19
3 | Cc1cc(F)cc([C@H](NC(=O)c2ccc(=O)n(C)c2)c2ncccc2F)c1 [Example 326, (S)-N-((3-fluoro-5-methylphenyl)(3-fluoropyridin-2-yl)methyl)-1-methyl-6-oxo-1,6-dihydropyridine-3-carboxamide] | 5.49
4 | O=C(N[C@@H](c1cc(F)cc(C(F)(F)F)c1)c1ncccc1F)c1ccc(=O)[nH]c1 [Example 327, (S)-N-((3-fluoro-5-(trifluoromethyl)phenyl)(3-fluoropyridin-2-yl)methyl)-6-oxo-1,6-dihydropyridine-3-carboxamide] | 6.52
5 | Cn1cc(C(=O)N[C@@H](c2cc(F)cc(C(F)(F)F)c2)c2ncccc2F)ccc1=O [Example 328, (S)-N-((3-fluoro-5-(trifluoromethyl)phenyl)(3-fluoropyridin-2-yl)methyl)-1-methyl-6-oxo-1,6-dihydropyridine-3-carboxamide] | 5.97
6 | O=C(N[C@@H](c1cc(F)cc(F)c1)c1ncccc1F)c1ccc(=O)[nH]c1 [Example 329, (S)-N-((3,5-difluorophenyl)(3-fluoropyridin-2-yl)methyl)-6-oxo-1,6-dihydropyridine-3-carboxamide] | 6.08
7 | Cn1cc(C(=O)N[C@@H](c2cc(F)cc(F)c2)c2ncccc2F)ccc1=O [Example 330, (S)-N-((3,5-difluorophenyl)(3-fluoropyridin-2-yl)methyl)-1-methyl-6-oxo-1,6-dihydropyridine-3-carboxamide] | 5.57
8 | O=C(N[C@@H](c1ccc(F)c(F)c1)c1ncccc1F)c1ccc(=O)[nH]c1 [Example 331, (S)-N-((3,4-difluorophenyl)(3-fluoropyridin-2-yl)methyl)-6-oxo-1,6-dihydropyridine-3-carboxamide] | 6.02
9 | Cn1cc(C(=O)N[C@@H](c2ccc(F)c(F)c2)c2ncccc2F)ccc1=O [Example 332, (S)-N-((3,4-difluorophenyl)(3-fluoropyridin-2-yl)methyl)-1-methyl-6-oxo-1,6-dihydropyridine-3-carboxamide] | 6.57
10 | Cc1cc([C@H](NC(=O)c2ccc(=O)[nH]c2)c2ncccc2F)cc(C(F)(F)F)c1 [Example 333, (S)-N-((3-fluoropyridin-2-yl)(3-methyl-5-(trifluoromethyl)phenyl)methyl)-6-oxo-l,6-dihydropyridine-3-carboxamide] | 6.18
11 | Cc1ccc([C@H](NC(=O)c2ccc(=O)[nH]c2)c2ncccc2F)cc1F [Example 334, (S)-N-((3-fluoro-4-methylphenyl)(3-fluoropyridin-2-yl)methyl)-6-oxo-1,6-dihydropyridine-3-carboxamide] | 6.99
12 | Cc1ccc([C@H](NC(=O)c2ccc(=O)n(C)c2)c2ncccc2F)cc1F [Example 335, (S)-N-((3-fluoro-4-methylphenyl)(3-fluoropyridin-2-yl)methyl)-1-methyl-6-oxo-1,6-dihydropyridine-3-carboxamide] | 6.68
13 | COc1ccc([C@H](NC(=O)c2ccc(=O)[nH]c2)c2ncccc2F)cc1F [Example 336, (S)-N-((3-fluoro-4-methoxyphenyl)(3-fluoropyridin-2-yl)methyl)-6-oxo-1,6-dihydropyridine-3-carboxamide] | 6.87
14 | COc1ccc([C@H](NC(=O)c2ccc(=O)n(C)c2)c2ncccc2F)cc1F [Example 337, (S)-N-((3-fluoro-4-methoxyphenyl)(3-fluoropyridin-2-yl)methyl)-1-methyl-6-oxo-1,6-dihydropyridine-3-carboxamide] | 6.50
15 | Cc1cc([C@H](NC(=O)c2ccc(=O)[nH]c2)c2ncccc2F)ccc1F [Example 338, (S)-N-((4-fluoro-3-methylphenyl)(3-fluoropyridin-2-yl)methyl)-6-oxo-1,6-dihydropyridine-3-carboxamide] | 6.58
16 | Cc1cc([C@H](NC(=O)c2ccc(=O)n(C)c2)c2ncccc2F)ccc1F [Example 339, (S)-N-((4-fluoro-3-methylphenyl)(3-fluoropyridin-2-yl)methyl)-1-methyl-6-oxo-1,6-dihydropyridine-3-carboxamide] | 6.04
17 | O=C(N[C@@H](c1ccc(F)cc1)c1ncccc1F)c1ccc(=O)[nH]c1 [Example 340, (S)-N-((4-fluorophenyl)(3-fluoropyridin-2-yl)methyl)-6-oxo-1,6-dihydropyridine-3-carboxamide] | 6.09

Other lines, results leading:

Row | pIC50 | SMILES
18 | 5.37 | Cn1cc(C(=O)N[C@@H](c2ccc(F)cc2)c2ncccc2F)ccc1=O [Example 341, (S)-N-((4-fluorophenyl)(3-fluoropyridin-2-yl)methyl)-1-methyl-6-oxo-1,6-dihydropyridine-3-carboxamide]
19 | 6.59 | COc1ccc([C@H](NC(=O)c2ccc(=O)[nH]c2)c2ncccc2F)cc1 [Example 342, (S)-N-((3-fluoropyridin-2-yl)(4-methoxyphenyl)methyl)-6-oxo-1,6-dihydropyridine-3-carboxamide]
20 | 5.83 | COc1ccc([C@H](NC(=O)c2ccc(=O)n(C)c2)c2ncccc2F)cc1 [Example 343, (S)-N-((3-fluoropyridin-2-yl)(4-methoxyphenyl)methyl)-1-methyl-6-oxo-1,6-dihydropyridine-3-carboxamide]
21 | 7.35 | O=C(N[C@@H](c1ccc(Cl)c(F)c1)c1ncccc1F)c1ccc(=O)[nH]c1 [Example 344, (S)-N-((4-chloro-3-fluorophenyl)(3-fluoropyridin-2-yl)methyl)-6-oxo-1,6-dihydropyridine-3-carboxamide]
22 | 6.99 | Cn1cc(C(=O)N[C@@H](c2ccc(Cl)c(F)c2)c2ncccc2F)ccc1=O [Example 345, (S)-N-((4-chloro-3-fluorophenyl)(3-fluoropyridin-2-yl)methyl)-1-methyl-6-oxo-1,6-dihydropyridine-3-carboxamide]
23 | 7.95 | O=C1Cc2cc(C(=O)N[C@@H](c3ccc(OC(F)(F)F)c(F)c3)c3ncccc3F)ccc2N1 [Example 346, (S)-N-((3-fluoro-4-(trifluoromethoxy)phenyl)(3-fluoropyridin-2-yl)methyl)-2-oxoindoline-5-carboxamide]
24 | 8.00 | Cc1cccnc1[C@@H](NC(=O)c1ccc(=O)[nH]c1)c1ccc(OC(F)(F)F)c(F)c1 [Example 347, (S)-N-((3-fluoro-4-(trifluoromethoxy)phenyl)(3-methylpyridin-2-yl)methyl)-6-oxo-1,6-dihydropyridine-3-carboxamide]
25 | 7.81 | O=C(N[C@@H](c1ccc(OC(F)(F)F)c(F)c1)c1ncccc1F)c1ccc(=O)[nH]n1 [Example 349, (S)-N-((3-fluoro-4-(trifluoromethoxy)phenyl)(3-fluoropyridin-2-yl)methyl)-6-oxo-1,6-dihydropyridazine-3-carboxamide]
26 | 7.64 | O=C(N[C@@H](c1ccc(OC(F)(F)F)cc1)c1ncccc1F)c1ccc(=O)[nH]n1 [Example 350, (S)-N-((3-fluoropyridin-2-yl)(4-(trifluoromethoxy)phenyl)methyl)-6-oxo-1,6-dihydropyridazine-3-carboxamide]
27 | 7.80 | O=C1CCc2cc(C(=O)N[C@@H](c3ccc(OC(F)(F)F)c(F)c3)c3ncccc3F)ccc2N1 [Example 351, (S)-N-((3-fluoro-4-(trifluoromethoxy)phenyl)(3-fluoropyridin-2-yl)methyl)-2-oxo-1,2,3,4-tetrahydroquinoline-6-carboxamide]
28 | 7.73 | O=C1CCc2cc(C(=O)N[C@@H](c3ccc(OC(F)(F)F)cc3)c3ncccc3F)ccc2N1 [Example 352, (S)-N-((3-fluoropyridin-2-yl)(4-(trifluoromethoxy)phenyl)methyl)-2-oxo-1,2,3,4-tetrahydroquinoline-6-carboxamide]
29 | 7.56 | O=C(N[C@@H](c1ccc(OC(F)(F)F)c(F)c1)c1ncccc1F)c1c[nH]c(=O)cn1 [Example 353, (S)-N-((3-fluoro-4-(trifluoromethoxy)phenyl)(3-fluoropyridin-2-yl)methyl)-5-oxo-4,5-dihydropyrazine-2-carboxamide]
30 | 7.17 | O=C(N[C@@H](c1ccc(OC(F)(F)F)cc1)c1ncccc1F)c1c[nH]c(=O)cn1 [Example 354, (S)-N-((3-fluoropyridin-2-yl)(4-(trifluoromethoxy)phenyl)methyl)-5-oxo-4,5-dihydropyrazine-2-carboxamide]
31 | 7.41 | O=C(N[C@@H](c1ccc(OC(F)(F)F)c(F)c1)c1ncccc1F)c1cc2n(n1)CCCO2 [Example 355, (S)-N-((3-fluoro-4-(trifluoromethoxy)phenyl)(3-fluoropyridin-2-yl)methyl)-6,7-dihydro-5H-pyrazolo[5,1-b][1,3]oxazine-2-carboxamide]
32 | 7.11 | O=C(N[C@@H](c1ccc(OC(F)(F)F)cc1)c1ncccc1F)c1cc2n(n1)CCCO2 [Example 356, (S)-N-((3-fluoropyridin-2-yl)(4-(trifluoromethoxy)phenyl)methyl)-6,7-dihydro-5H-pyrazolo[5,1-b][1,3]oxazine-2-carboxamide]
33 | 7.33 | Cc1cccnc1[C@@H](NC(=O)c1ccc2c(c1)OCC(=O)N2)c1ccc(OC(F)(F)F)c(F)c1 [Example 357, (S)-N-((3-fluoro-4-(trifluoromethoxy)phenyl)(3-methylpyridin-2-yl)methyl)-3-oxo-3,4-dihydro-2H-benzo[b][1,4]oxazine-7-carboxamide]
34 | 7.85 | Cc1cccnc1[C@@H](NC(=O)c1ccc2oc(=O)[nH]c2c1)c1ccc(OC(F)(F)F)c(F)c1 [Example 358, (S)-N-((3-fluoro-4-(trifluoromethoxy)phenyl)(3-methylpyridin-2-yl)methyl)-2-oxo-2,3-dihydrobenzo[d]oxazole-5-carboxamide]
